Three compounds from ChEMBL document CHEMBL1158210, “New Destruxins from the Entomopathogenic Fungus Aschersonia sp” (1996) can be followed below.

Test [1] concerns Drosophila melanogaster. Kind of test: Insecticidal activity against Drosophila melanogaster assessed as mortality at 400 ug/ml after 48 hrs. It counts as functional, organism-based.
Test [2] relates to Drosophila melanogaster. The test is described as follows: Insecticidal activity against Drosophila melanogaster assessed as mortality at 200 ug/ml after 40 hrs. It counts as functional, organism-based.
Test [3] concerns Drosophila melanogaster. Kind of test: Insecticidal activity against Drosophila melanogaster after 40 hrs. It counts as functional.

Structures are written as SMILES. Values after ≈ are worked out from the molar mass of the structure shown. Active and inactive are the calls of the source. The calls are words filed in the database; no cut-off is given here. Starred links: 1 amine or outer side, 2 acyl side, 3 side chain; linkers in the order of their positions; H or OH if unused. Non-standard residues stand in square brackets, D forms with d. Residues, ends and D or L forms follow the SMILES beside them. NMeI = CC[C@H](C)[C@H](NC)C(=O)O; X1 = C=CC[C@H](O[*:1])C(=O)[*:2]; Hica(2S) = CC(C)C[C@H](O)C(=O)O; NMeA = CN[C@@H](C)C(=O)O; βAla = NCCC(=O)O

For `CC[C@H](C)[C@@H]1NC(=O)[C@@H]2CCCN2C(=O)[C@H](CC(C)C)OC(=O)CCNC(=O)[C@H](C)N(C)C(=O)[C@H]([C@@H](C)CC)N(C)C1=O` (cyclo(I[NMeI][NMeA][βAla][Hica(2S)]P)), the outcome in the test with Drosophila melanogaster [1] was inactive.
With `C=CCC1OC(=O)CCNC(=O)[C@H](C)N(C)C(=O)[C@H]([C@@H](C)CC)N(C)C(=O)[C@H]([C@@H](C)CC)NC(=O)[C@@H]2C(C)CCN2C1=O` (stereo not given in full) [DESTRUXIN A5], the outcome in the test on Drosophila melanogaster [2] was Active. For the same compound, the 50% lethal concentration (LC50) (usually the concentration that kills 50% of the test population) with Drosophila melanogaster [3] was 52 µg/mL (≈ 85.8 µM).
`C=CC[C@@H]1OC(=O)CCNC(=O)[C@H](C)N(C)C(=O)[C@H]([C@@H](C)CC)N(C)C(=O)[C@H]([C@@H](C)CC)NC(=O)[C@@H]2CCCN2C1=O` [destruxin A4] (cyclo(I[NMeI][NMeA][βAla][X1]P)): the outcome with Drosophila melanogaster [2] was Active. In the test with Drosophila melanogaster [3], this compound gave a median lethal concentration (LC50) of 41 µg/mL (≈ 69.3 µM).
